“Also recorded” adds a separate entry of the source.
Tests used:
An. gambiae females = experiment: Survival assays of An. gambiae females after compound exposure (acute 48 h and long-term); assay type: in vivo, Anopheles gambiae; conditions: for proportionate survival relative to controls: 1 mmol/m2, 60 minutes exposure, 48 h after exposure
Protocol: (§1) Compound Exposures. Compounds (ATQ, ACE, HYD, PYR, PER, Millipore-Sigma, St. Louis, MO, USA) to be tested were dissolved in a suitable, volatile vehicle (Table S1) at stock concentrations of 3-10 mg/ml (0.3-1% w/v). Working concentrations of each compound were created through serial dilutions. To generate a compound-coated surface, a volume of working solution containing a known quantity of compound was added to 1 ml excess vehicle and transferred to a 6 cm diameter glass petri dish ([…]). Treated dishes were placed on a lateral shaker and left for 4 h or overnight until evaporation of the volatile vehicle, coating the compound to the glass substrate. Control plates were treated identically using only the acetone vehicle. A translucent plastic cup was placed over the coated surface to contain mosquitoes during exposure. A flap was cut into the base of the cup to allow the introduction of mosquitoes. Plates were used for 1 d and discarded. For exposures, 15-25 mosquitoes were introduced through the cup flap using a mouth aspirator and incubated on the treated surface for 6-60 min depending on the experimental parameters. Exposure plates were agitated once during exposure to discourage resting on the untreated walls and base of the cup. After exposure, plates were transferred to a clean 17.5 cm^3 cage (Bugdorm™, Megaview Science. Co. Taiwan).
Survival Assays. To assess acute survival following exposure: 40, females were exposed (as described above) to ATQ, PYR, ACE, HYD permethrin (PER) for 1 h at a dosage of 1 mmol/m^2 for each compound. […] Immediately after exposure, each treatment group was transferred to a 500 ml paper cup and provided with glucose. At 48 h post exposure the proportion of surviving mosquitoes in each group was determined. Differences in survival between control and compound-exposed mosquitoes were detected using Chi^2 analysis. For long-term survival, ˜100 ATQ- or control-exposed females were placed in clean 17.5 cm^3 cages (Bugdorm™, Megaview Science. Co., Taiwan). Water and a 10% w/v glucose solution was provided ad libitum. Cages were checked daily for mortality, and dead mosquitos were removed and counted. Each experiment continued until all mosquitoes had died. Differences in median time-to-death between ATQ and control treatment groups were analyzed using a Log-Rank Mantell-Cox test.

P. falciparum = experiment: Plasmodium falciparum infection assay in An. gambiae females after tarsal exposure to a compound-coated surface (oocyst prevalence and intensity); assay type: in vivo, Plasmodium falciparum (NF54) in Anopheles gambiae; conditions: for effect on prevalence of P. falciparum relative to controls / reduction of oocyst prevalence relative to controls: 1 mmol/m2, 6 minutes exposure
Protocol: as §1
Plasmodium falciparum Infection Assays. 5-d old An. gambiae females were exposed to compounds as described above. Immediately after exposure, females were transferred to a sealed, secure infection glovebox and provided an in vitro culture P. falciparum (NF54) gametocytes (1, 2) through a custom made, glass, water-heated membrane feeder. […] At 7-9 d post infectious blood meal (pIBM), females that had blood fed were vacuum aspirated into 80% ethanol, incubated for 10 minutes at −20° C., and transferred out of the secure feeding box into PBS on ice. Midguts were dissected out in PBS and stained with 0.2% w/v mercurochrome (in ddH2O) for 17 minutes. After staining, midguts were mounted on glass microscope slides in 0.02% w/v mercurochrome, and oocyst prevalence and intensity were determined by examination at 40× air objective on an inverted compound light microscope (Olympus Corporation, Waltham, MA).
Statistical Analysis. All statistical analyses were carried out using GraphPad Prism v7.0 for MacOSX (GraphPad Software Inc., La Jolla CA, USA). For infections, differences in prevalence were analyzed by Chi^2. In experiments where both treatment groups had individuals that produced >0 oocysts, differences in median oocyst burden between groups (intensity of infection) was analyzed using a Mann-Whitney Mean Ranks test. For multiple comparisons (e.g. FIG. 3) differences in prevalence between multiple groups were determined using pair-wise Chi^2 corrected for multiple comparisons (Bonferroni). Similarly, multiple comparisons of intensity were carried out using Wilcoxon with Dunn's post hoc. To determine IC50 from dose-response data, the mean relative inhibition (ATQ exposed prevalence/Control prevalence) was calculated for each tested dose and fit with a sigmoidal curve function using non-linear regression.

[1] = tested on: susceptible An. gambiae mosquitoes; conditions: 60-minute tarsal exposure; cited from earlier work
[2] = 10 μmol/m^2, 60 minutes exposure
[3] = 1 mmol/m2, 60 minutes exposure immediately prior to infection

Structure (SMILES)	proportionate survival relative to controls (An. gambiae females)	effect on prevalence of P. falciparum relative to controls (P. falciparum)	reduction of oocyst prevalence relative to controls (P. falciparum)	also measured
CCc1nc(N)nc(N)c1-c1ccc(Cl)cc1 [PYR, pyrimethamine]	1.000			
O=C1C(O)=C([C@H]2CC[C@H](c3ccc(Cl)cc3)CC2)C(=O)c2ccccc21 [ATQ, atovaquone]	0.975			inhibition of intensity of infection compared to controls (P. falciparum; [2]): 87.5%; inhibition of prevalence of infection compared to controls (P. falciparum; [2]): 87.6%; oocyst intensity (P. falciparum; 100 μmol/m2, 6 min exposure): 0%; prevalence of infection (P. falciparum oocysts) (P. falciparum; 100 μmol/m2, 6 min exposure): 0%; oocyst intensity (P. falciparum; 1 mmol/m2, 6 min exposure): 0%; prevalence of infection (P. falciparum oocysts) (P. falciparum; 1 mmol/m2, 6 min exposure): 0%; oocyst intensity (P. falciparum; [3]): 0%; prevalence of infection (P. falciparum oocysts) (P. falciparum; [3]): 0%; IC50 of pre-infection exposure (surface concentration; prevalence of infection) (P. falciparum; 60 minutes tarsal exposure, interpolated from dose-response curve): 1.77 μmol/m^2; effect on acute or long-term survival of An. gambiae females (An. gambiae females; ATQ- vs control-exposed females, followed until death): no effect
CC1(C)C(C=C(Cl)Cl)C1C(=O)OCc1cccc(Oc2ccccc2)c1 (stereo not shown) [permethrin]	0.055			LC50 [1]: 63 μmol/m^2
CC1(C)CNC(=NN=C(/C=C/c2ccc(C(F)(F)F)cc2)/C=C/c2ccc(C(F)(F)F)cc2)NC1 [HYD, hydramethylnon]	0.976	strongly reduced prevalence	63.9%	
CCCCCCCCCCCCC1=C(OC(C)=O)C(=O)c2ccccc2C1=O [ACE, acequinocyl]	1.059	strongly reduced prevalence	64.3%	
CCCCCCCCCCOc1cc2c(O)c(C(=O)OCC)cnc2cc1OCC [DEC, decoquinate]	1.084	no detectable effect on infection; also recorded: Neither compound is capable of reducing the prevalence		

— patent publication US12520840B2, “Method for reducing parasite burden in a mosquito” (PRESIDENT AND FELLOWS OF HARVARD COLLEGE, priority 2018, dated 2026)
